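Interpolation was linear, between the two tested concentrations surrounding the appropriate level; five concentrations were tested over 48 hours in 96-well plates. Abbreviation: GI50, concentration required for 50% inhibition of growth.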 Calls of active or inactive are those of the source. Rule as the data show it: active = GI50 up to about 1.1 µM and inactive = higher. Some results are limits rather than exact numbers.

The source of these data is ChEMBL document CHEMBL1201862, “PubChem BioAssay data set” (2004).

Among the test systems are ACHN; COLO 205; HCT-15; IGROV-1; MDA-MB-231; Malme-3M; NCI/ADR-RES; OVCAR-3; OVCAR-5; OVCAR-8; SF-268; SF-539; SK-MEL-5; SN12C; SNB-19; SR; TK-10; U-251; UO-31; HT-29.
What all share (assay): NCI-60 cell line screen, 48 h

`CNC(=O)C1OC(n2cnc3c(NCc4cccc(I)c4)nc(Cl)nc32)C(O)C1O` (centres undefined): the GI50 in the test on ACHN was 11.8 µM (inactive); in the test on COLO 205, 22.5 µM (inactive); in the test on HCT-15 it was 1.06 µM; with IGROV-1, 14.1 µM (inactive); with MDA-MB-231, 22.8 µM (inactive); in the test on Malme-3M, 3.64 µM (inactive). Besides, the GI50 in the test on NCI/ADR-RES was 11.7 µM (inactive); with OVCAR-3, 13 µM (inactive); in the test with OVCAR-5 it was 14 µM (inactive); in the test with OVCAR-8, 13.8 µM (inactive); with SF-268, 11.4 µM (inactive); in the test with SF-539, 11 µM (inactive). Moreover, the GI50 in the test with SK-MEL-5 is 12 µM (inactive); in the test with SN12C, 16.6 µM (inactive); in the test on SNB-19, 12.4 µM (inactive); in the test on SR, 14 µM (inactive); in the test with TK-10, 16.3 µM (inactive); with U-251 it was 14.8 µM (inactive). Moreover, in the test with UO-31, the GI50 was 11.9 µM (inactive).
As to `Nc1nc(S)c2c(N)n[nH]c2c1C(=O)Nc1ccc(Cl)cc1`, the GI50 was > 100 µM (inactive) in the test with COLO 205; 74.8 µM with HCT-15; > 100 µM (inactive) in the test with HT-29; > 100 µM (inactive) with IGROV-1; > 100 µM (inactive) with MDA-MB-231; > 100 µM (inactive) in the test with Malme-3M. The GI50 in the test on NCI/ADR-RES was > 100 µM (inactive); in the test with OVCAR-3, > 100 µM (inactive); in the test on OVCAR-5, > 100 µM (inactive); in the test on OVCAR-8, 32.1 µM (inactive); with SF-268 it was > 100 µM (inactive); in the test on SF-539, > 100 µM (inactive). The GI50 with SK-MEL-5 is > 100 µM (inactive); in the test with SN12C it was > 100 µM (inactive); in the test with SNB-19, > 100 µM (inactive); in the test with SR, 24.3 µM (inactive); in the test with TK-10 it was > 100 µM (inactive); in the test with U-251 it was > 100 µM (inactive). The GI50 with UO-31 was 74 µM (inactive).
In the case of `O=S1OC[C@H](CCCl)O1` (some centres undefined), the GI50 in the test with ACHN was > 100 µM (inactive); in the test on COLO 205, > 100 µM (inactive); in the test with HCT-15 it was above 100 µM; in the test on HT-29, > 100 µM (inactive); with IGROV-1, > 100 µM (inactive); with MDA-MB-231 it was > 100 µM (inactive). For the same molecule, the GI50 in the test with Malme-3M, with NCI/ADR-RES, with OVCAR-3, with OVCAR-5, with OVCAR-8 and in the test with SF-539 was > 100 µM (inactive) throughout. Further, the GI50 in the test with SK-MEL-5, in the test on SN12C, with SNB-19, in the test on SR, in the test on TK-10 and in the test with U-251 was > 100 µM (inactive) in each case. For the same molecule, the GI50 in the test with UO-31 is > 100 µM (inactive).
Regarding `O=C1Nc2ccc(Br)cc2/C1=N/N1C(=O)C(=O)N(C2CCCCC2)C1=S`, the GI50 in the test with ACHN was 4.83 µM (inactive); in the test on COLO 205, 2.92 µM (inactive); with HCT-15, 2.42 µM; in the test with HT-29 it was 2.75 µM (inactive); in the test with MDA-MB-231, 6.64 µM (inactive); in the test on Malme-3M, 3.21 µM (inactive). Moreover, the GI50 with NCI/ADR-RES is 3.22 µM (inactive); in the test on OVCAR-3, 2.47 µM (inactive); in the test on OVCAR-5, 9.75 µM (inactive); with SF-268, 6.7 µM (inactive); in the test on SF-539, 5.66 µM (inactive); in the test on SK-MEL-5 it was 4.34 µM (inactive). The GI50 in the test with SN12C is 3.43 µM (inactive); with SNB-19, 9.64 µM (inactive); in the test on SR it was 1.19 µM (inactive); with TK-10 it was 12.2 µM (inactive); in the test with U-251, 2.93 µM (inactive); in the test on UO-31 it was 1.51 µM (inactive).
As for `CC1(C)CC(=O)C2=C(C1)NC1=C(C2)C(=O)CC(C)(C)C1`, the GI50 is > 100 µM (inactive) in the test on ACHN; > 100 µM (inactive) in the test with COLO 205; above 100 µM in the test on HCT-15; > 100 µM (inactive) in the test on HT-29; > 100 µM (inactive) in the test on IGROV-1; > 100 µM (inactive) in the test on MDA-MB-231. Further, the GI50 in the test with Malme-3M, in the test with NCI/ADR-RES, in the test with OVCAR-3, with OVCAR-5, in the test on OVCAR-8 and with SF-268 was > 100 µM (inactive) in each case. For the same molecule, the GI50 in the test on SF-539, in the test on SK-MEL-5, with SN12C, in the test with SNB-19, in the test on SR and with TK-10 was > 100 µM (inactive) each time. In addition, the GI50 in the test with U-251 and with UO-31 was > 100 µM (inactive) in each case.
`CC(C)OC(=O)C1(C(C)C)CCc2ccc(C(=O)CCC(=O)O)cc21` (centres undefined): the GI50 in the test on ACHN is > 100 µM (inactive); in the test with COLO 205 it was > 100 µM (inactive); with HCT-15, above 100 µM; in the test on HT-29, > 100 µM (inactive); in the test on IGROV-1, > 100 µM (inactive); in the test with MDA-MB-231, > 100 µM (inactive). The GI50 in the test on Malme-3M, in the test with NCI/ADR-RES, in the test with OVCAR-5, in the test with OVCAR-8, in the test on SF-268 and with SF-539 was > 100 µM (inactive) throughout. The GI50 with SK-MEL-5, in the test on SN12C, in the test on SNB-19, in the test with SR, in the test on TK-10 and in the test on U-251 was > 100 µM (inactive) throughout. The GI50 with UO-31 was > 100 µM (inactive).
Turning to `CCCCCCCC1(N=[N+]=[N-])C(=O)Nc2ccccc2C1=O` (centres undefined), the GI50 in the test on ACHN is 14.4 µM (inactive); with COLO 205, 20 µM (inactive); with HCT-15, 21.9 µM; in the test on HT-29, 22.6 µM (inactive); in the test on IGROV-1, 12.1 µM (inactive); in the test with MDA-MB-231, 21.7 µM (inactive). For the same molecule, the GI50 is 17.7 µM (inactive) in the test with Malme-3M; 18.9 µM (inactive) in the test on NCI/ADR-RES; 16.1 µM (inactive) in the test with OVCAR-3; 18.7 µM (inactive) in the test on OVCAR-5; 15.6 µM (inactive) in the test on SF-268; 15.7 µM (inactive) in the test with SF-539. Moreover, the GI50 with SK-MEL-5 is 15.1 µM (inactive); with SN12C, 18.7 µM (inactive); in the test on SNB-19 it was 17.5 µM (inactive); with SR, 24.2 µM (inactive); in the test with TK-10, 17.2 µM (inactive); in the test on U-251 it was 15.1 µM (inactive). For the same molecule, the GI50 in the test with UO-31 was 12.7 µM (inactive).
Consider `COc1ccc(-n2nnnc2C2(Nc3ccccc3)CCN(Cc3ccccc3)CC2)cc1`, for which the GI50 was 31.8 µM (inactive) in the test on ACHN; 6.82 µM (inactive) in the test with COLO 205; 7.21 µM in the test on HCT-15; 6.82 µM (inactive) in the test on HT-29; 11.9 µM (inactive) in the test on IGROV-1; 10.4 µM (inactive) in the test on MDA-MB-231. The GI50 in the test on Malme-3M was 13.4 µM (inactive); in the test on NCI/ADR-RES, 7.35 µM (inactive); in the test with OVCAR-5, 15.7 µM (inactive); in the test with OVCAR-8, 19 µM (inactive); with SF-268 it was > 10 µM (inactive); in the test on SF-539, 16.4 µM (inactive). Further, the GI50 in the test on SK-MEL-5 is 10.2 µM (inactive); in the test with SN12C, 7.29 µM (inactive); in the test with SNB-19 it was 12.3 µM (inactive); in the test with SR, 5.3 µM (inactive); with TK-10, 12.4 µM (inactive); in the test on U-251, 16.4 µM (inactive). For the same molecule, the GI50 with UO-31 is 7.48 µM (inactive).
With `CN(C)/N=C1/CCC(C(F)(F)F)(C(F)(F)F)O1`, the GI50 is 35.6 µM (inactive) with ACHN; 16.7 µM (inactive) in the test on COLO 205; 41.4 µM in the test on HCT-15; 41.8 µM (inactive) in the test with HT-29; 31.2 µM (inactive) in the test on IGROV-1; 25.4 µM (inactive) in the test on MDA-MB-231. For the same molecule, the GI50 in the test with Malme-3M is 23.3 µM (inactive); in the test with NCI/ADR-RES, 26.6 µM (inactive); in the test on OVCAR-3, 18.5 µM (inactive); with OVCAR-5 it was 58.1 µM (inactive); in the test with SF-268, 43.5 µM (inactive); in the test with SF-539 it was 45.4 µM (inactive). In addition, the GI50 in the test on SK-MEL-5 was 21.9 µM (inactive); with SN12C, 27.8 µM (inactive); with SNB-19, 41.8 µM (inactive); with SR it was 17.6 µM (inactive); with TK-10, 51.4 µM (inactive); in the test on U-251, 39 µM (inactive). Besides, the GI50 in the test on UO-31 is 28.4 µM (inactive).
On to `C[C@@]1(O)C2CC3CC1(c1ccccc1)CC(/C3=N/O)/C2=N\O` (some centres undefined), for which the GI50 is > 100 µM (inactive) in the test with ACHN; > 100 µM (inactive) in the test on COLO 205; above 100 µM with HCT-15; > 100 µM (inactive) in the test on HT-29; > 100 µM (inactive) in the test with IGROV-1; > 100 µM (inactive) with MDA-MB-231. Further, the GI50 in the test on Malme-3M, with NCI/ADR-RES, with OVCAR-3, with OVCAR-5, in the test on OVCAR-8 and with SF-268 was > 100 µM (inactive) throughout. For the same molecule, the GI50 with SF-539, in the test on SK-MEL-5, in the test on SN12C, in the test on SNB-19, with SR and with U-251 was > 100 µM (inactive) in each case. Moreover, in the test on UO-31, the GI50 is > 100 µM (inactive).
On to `Cc1c(C(=O)N2CCN(c3ccc([N+](=O)[O-])cc3)CC2)[n+]([O-])c2cc(Cl)c(Cl)cc2[n+]1[O-]`, for which the GI50 with ACHN is 13.5 µM (inactive); in the test with COLO 205, 26.4 µM (inactive); with HCT-15, 17.1 µM; with HT-29 it was 25.2 µM (inactive); in the test on IGROV-1, 22.2 µM (inactive); in the test with MDA-MB-231, 21.2 µM (inactive). Besides, the GI50 was 21.8 µM (inactive) with Malme-3M; 16.8 µM (inactive) in the test on NCI/ADR-RES; 22.8 µM (inactive) with OVCAR-3; 21.6 µM (inactive) in the test on OVCAR-5; 16.9 µM (inactive) in the test with OVCAR-8; 17.3 µM (inactive) in the test on SF-268. The GI50 was 18.6 µM (inactive) with SF-539; 10.9 µM (inactive) in the test on SK-MEL-5; 18.4 µM (inactive) with SN12C; 18.3 µM (inactive) in the test with SNB-19; 21.2 µM (inactive) with SR; 21.6 µM (inactive) in the test with TK-10. Further, the GI50 in the test with U-251 is 20.9 µM (inactive).
